Data set [1] relates to vertebral artery blood flow of a dog. The experiment in a line: Vertebral artery blood flow increasing activity. The class given is in vivo, dog (mongrel). The conditions noted are these: i.v., amount with same activity as 1 mg/kg (i.v.) papaverine hydrochloride, ratio to papaverine hydrochloride. Here is the method: (§1) The compounds of this invention to be tested were used in the form of a hydrochloride.
The vertebral artery blood flow of a dog (mongrel, 12-22 kg, 2-3 heads per group) anesthetized with pentobarbital sodium (30 mg/kg, i.v.) was measured by means of an electromagnetic flow meter (MFV-2100 manufactured by Nihon Kohden Kogyo).
The test compounds 1, 3 and 10 were adjusted to a concentration of 1 mg/ml with distilled water, and then diluted with a saline solution to the desired concentrations, after which the thus diluted solutions were intravenously administered, and the test compounds 12, 15, 18, 19, 20, 24, 29, 30, 32 and 33 were formed into solutions in the same manner as in Item 1 above and then intravenously administered.

For data set [2], the system named is coronary vessel (isolated guinea pig heart). As to the kind of experiment: Coronary vasodilating activity (isolated perfused guinea pig heart, coronary effluent). The arrangement: species or system guinea pig (Hartley strain). Particulars: Langendorff perfusion, 0.1 ml into aorta, hydrochloride. The procedure:
as §1
The heart of a guinea pig (Hartley strain, male, 500-700 g, 3 heads per group) was isolated and set in the Landendorff perfusing apparatus. About 0.5% defibrinated blood was fed to the apparatus, and the Krebs bicarbonate solution, into which a mixed gas consisting of 95% of O2 and 5% of CO2 had been bubbled was perfused over the heart, after which a 1 mg/ml solution of the test compound in an aqueous solution containing 10% by volume of dimethylsulfoxide and 10% of polyoxyethylfatty acid glyceride [Cremophor EL manufactured by Sigma] was prepared, diluted with a saline solution to the desired concentration, and then administered into the heart in an amount of 0.1 ml through the rubber tube attached to the cannula inserted retrogressively into the aorta. The vasodilating activity was determined by measuring the amount of the solution effluent from the coronary vessel after passing through the aorta by means of an electric drop counter (universal drop counter manufactured by Natsume Seisakusho) and indicated as ED50 value which is the amount necessary for the amount of the effluent solution to increase 50% as compared with those before addition of the test compound.

Data set [3] has as its system mouse pulmonary infraction model. As to the kind of experiment: Antithrombosis activity, mouse pulmonary infraction model, prevention of death and paralysis (0.10 ml epinephrine/collagen). Type of data set: in vivo, mouse (ICR strain). Particulars: Mus musculus, po, 1 h, read-out: Preventive percentage of death + paralysis for 10 minutes or more. Here is the method:
as §1
According to the G. DiMinno and M. J. Silver method [J. Pharmacol. Exp. Therap., 225 (1) 57-60 (1983)], a solution of the compound to be tested was orally administered to a mouse (ICR strain, male, 4 weeks old), and 0.15 ml of a mixed solution of epinephrine (100 μM) and collagen (150 μg/ml) was intravenously administered to the mouse after one hour, after which the paralytic time was measured. Comparing the paralytic time of the control group, the paralytic time-shortening percentage due to the compound to be tested was determined. The results obtained are shown in Table 4, in which the case where the paralytic time was 15 minutes was calculated as death.
Moreover, the same experiment was repeated, except that 0.10 ml of a mixed solution of epinephrine (100 μM) and collagen (150 μg/ml) was intravenously administered to the mouse and the effect of preventing the appearance of death and a case where the paralytic time was 10 minutes or more was checked and the results thereof are shown in Table 5.
(§2) The test compounds shown in Table 4 were adjusted to the desired concentrations with water, and the test compounds shown in Table 5 were adjusted to a concentration of 5 mg/ml with an aqueous solution containing 10% by volume of each of dimethyl sulfoxide and Cremophor, and then diluted with water to the desired concentrations.

For data set [4], the system named is Thromboxane-Synthesizing Enzyme. As to the kind of experiment: Thromboxane-synthesizing enzyme-inhibitory activity (MDA production in platelet-rich plasma after oral dosing). The class given is in vivo, rat (Wistar strain). Particulars: rat, 3 mg/kg, blood after one hour. The procedure: as §1
To a rat (Wistar strain, male, 300-350 g, 4 heads per group) which had been starved overnight was orally administered a test compound solution, and blood was collected from the abdominal aorta using citric acid after one hour. Two milliliters of a 1×10^9 /ml platelet-rich plasma (PRP) was preincubated at 37° C. for 2 minutes. Subsequently, 0.1 ml of 10 mM sodium archidonate was added, and the resulting mixture was subjected to reaction for 6 minutes, after which indomethacin was added thereto to terminate the reaction. The reaction mixture was subjected to deproteinization treatment and reacted with thiobarbituric acid (TBA) reagent, after which the reaction mixture was subjected to extraction with 3 ml of n-butanol. The resulting extract was subjected to colorimetry (λ=532 nm) to determine the amount of malondialdehyde (MDA) produced. As to the platelet-poor plasma (PPP) obtained from the same rat as above, the same procedure as above was repeated to determine the amount of MDA produced, and the difference between the two is indicated as MDA value. Comparing with the MDA values of the control group, the MDA production-inhibition (%) was determined.
The test compounds 1-9 were adjusted to the desired concentrations with water and the test compounds 11-33 and nicardipine were adjusted to a concentration of 5 mg/ml with an aqueous solution containing 10% of each of dimethyl sulfoxide and Cremophor and then diluted with water to the desired concentrations.

Data set [5] deals with mouse pulmonary infraction model. The experiment in a line: Antithrombosis activity, mouse pulmonary infraction model, paralytic time-shortening (0.15 ml epinephrine/collagen). The class given is in vivo, mouse (ICR strain). The conditions noted are these: 1 h, oral, challenge after one hour, 10 mice, read-out: Paralytic time-shortening percentage. Here is the method: as §1
Comparing the paralytic time of the control group, the paralytic time-shortening percentage due to the compound to be tested was determined.
as §2

Data set [6] is described as follows: Acute toxicity, intravenous, mice. The conditions noted are these: mouse, in vivo, mice (ICR, male, 4 weeks old, 5 per group).

The source of these data is patent US4731370A, “Pyridyl ester containing 1,4-dihydropyridine derivatives and salts thereof and pharmaceutical composition containing the same” (Toyama Chemical Co., Ltd., priority 1984, dated 1988).

Counter-ions that a name gives are not always drawn. Bounds are passed on as bounds.

For the molecule `COC(=O)C1=C(C)NC(C)=C(C(=O)OCCN(C)Cc2ccccc2)C1c1cccc([N+](=O)[O-])c1` (centres unmarked) [Nicardipine, 3-[2-(N-benzyl-N-methylamino)ethyl]5-methyl 2,6-dimethyl-4-(3-nitrophenyl)-1,4-dihydropyridine-3,5-dicarboxylate hydrochloride, reference compound], in data set [1], the Effect ratio turned out to be 220. In addition, the “ED50 (amount necessary for the amount of the effluent solution to increase 50%)” value in data set [2] is listed as 0.042 μg/i.c. The responders at 10 mg/kg in data set [3] is 0%. The molecule further came in with an MDA production-inhibition in data set [4] of 2.7%. Moreover, the inhibition in vivo at 10 mg/kg in data set [5] is 6.3%.
Turning to `C/C(=C\c1ccc(Cc2cccnc2)cc1)C(=O)O` [OKY-1581, Sodium (E)-3-[4-(pyridin-3-ylmethyl)phenyl]-2-methylpropenoate, reference compound], the responders at 30 mg/kg in data set [3] was found to be 10%. Moreover, the inhibition in vivo at 300 mg/kg in data set [5] (300 mg/kg) stood at 9.5%.
Regarding `CC1=C(C(=O)OCCN(C)C/C(C)=C/c2ccc(Cc3cccnc3)cc2)C(c2cccc([N+](=O)[O-])c2)C(C(=O)OC(C)C)=C(C)N1` (centres unmarked) [compound 1], the Effect ratio in data set [1] is reported as 238. In addition, the MDA production-inhibition in data set [4] came to 59.4%. In addition, the inhibition in vivo at 10 mg/kg in data set [5] turned out to be 52.3%.
Consider `COC(=O)C1=C(C)NC(C)=C(C(=O)OCCN(C)C/C(C)=C/c2ccc(Cc3cccnc3)cc2)C1c1cccc([N+](=O)[O-])c1` (centres unmarked) [compound 2], for which, in data set [6], the 50% lethal dose (LD50) (usually the dose expected to kill half of the subjects tested) is no less than 30 mg/kg. The molecule further came in with an MDA production-inhibition in data set [4] of 63.2%. In addition, the inhibition in vivo at 10 mg/kg in data set [5] was 84.1%.
Molecule `CC1=C(C(=O)OCCN(C)C/C(C)=C/c2ccc(Cc3cccnc3)cc2)C(c2cccc(Cl)c2Cl)C(C(=O)OC(C)C)=C(C)N1` (centres unmarked) [compound 5] showed an MDA production-inhibition in data set [4] of 57.9%. The inhibition in vivo at 10 mg/kg in data set [5] was 93.9%.
In turn, `CC1=C(C(=O)OCCN(C)C/C(C)=C/c2ccc(Cc3cccnc3)cc2)C(c2ccccc2C(F)(F)F)C(C(=O)OC(C)C)=C(C)N1` (centres unmarked) [compound 6] had an MDA production-inhibition in data set [4] of 60.6%. The inhibition in vivo at 10 mg/kg in data set [5] is 87.9%.
`CC1=C(C(=O)OCCN(C)C/C=C/c2ccc(Cc3cccnc3)cc2)C(c2cccc([N+](=O)[O-])c2)C(C(=O)OC(C)C)=C(C)N1` (centres unmarked) [compound 7] registered an LD50 in data set [6] of no less than 30 mg/kg. Besides, in data set [4], the MDA production-inhibition was determined as 52.8%. Moreover, in data set [5], the inhibition in vivo at 10 mg/kg was 36.4%.
In turn, `CC1=C(C(=O)OCCNC/C(C)=C/c2ccc(Cc3cccnc3)cc2)C(c2cccc([N+](=O)[O-])c2)C(C(=O)OC(C)C)=C(C)N1` (centres unmarked) [compound 8] showed an LD50 in data set [6] of no less than 30 mg/kg. The molecule also displayed an MDA production-inhibition in data set [4] of 64.9%. In data set [5], the inhibition in vivo at 10 mg/kg amounted to 47.9%.
For the molecule `CCOC(=O)C1=C(C)NC(C)=C(C(=O)OCCN(C)C/C(C)=C/c2ccc(Oc3cccnc3)cc2)C1c1cccc([N+](=O)[O-])c1` (centres unmarked) [compound 10], the Effect ratio in data set [1] was 641. In data set [6], this molecule registered a median lethal dose (LD50) of no less than 30 mg/kg. In addition, in data set [5], the inhibition in vivo at 10 mg/kg came to 79.2%.
